In this assay the target is human orexin 2 receptor (Homo sapiens (Human), UniProt O43614). Put plainly: Human orexin 2 receptor radioligand binding ([3H]EMPA competition, HEK293 cells). The conditions noted are these: HEK293 cells expressing human orexin-2 receptor, read-out: OR 2 Ki.

pKi: −log10 of the molar value.

Chain of human orexin 2 receptor (O43614 whole entry): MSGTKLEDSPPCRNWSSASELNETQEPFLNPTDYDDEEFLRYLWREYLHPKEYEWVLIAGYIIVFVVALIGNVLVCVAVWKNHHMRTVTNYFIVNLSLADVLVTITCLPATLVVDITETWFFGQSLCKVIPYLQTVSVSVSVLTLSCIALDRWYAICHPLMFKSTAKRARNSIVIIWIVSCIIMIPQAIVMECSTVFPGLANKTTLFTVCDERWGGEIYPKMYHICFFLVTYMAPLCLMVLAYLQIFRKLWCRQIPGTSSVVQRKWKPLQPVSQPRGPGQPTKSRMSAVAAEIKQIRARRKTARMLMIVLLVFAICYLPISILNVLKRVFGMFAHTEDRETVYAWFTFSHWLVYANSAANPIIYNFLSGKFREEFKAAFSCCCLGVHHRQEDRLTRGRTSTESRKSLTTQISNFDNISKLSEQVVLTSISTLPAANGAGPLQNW

The term pKi denotes −log10 of the Ki, conventionally taken in molar units. `Cc1cc(C)nc(N2CC3CN(C(=O)c4c(F)cccc4-c4ccc(Cl)cn4)CC3C2)n1` (stereo not drawn) [Example 484, 2-{[2-(5-Chloropyridin-2-yl)-6-fluorophenyl]carbonyl}-5-(4,6-dimethylpyrimidin-2-yl)octahydropyrrolo[3,4-c]pyrrole]: the negative-log Ki (pKi) is 6.64.

Turning to `Cc1cc(C)nc(N2CC3CN(C(=O)c4ncccc4C(F)(F)F)CC3C2)n1` (stereo not drawn) [Example 413, 2-(4,6-Dimethylpyrimidin-2-yl)-5-{[3-(trifluoromethyl)pyridin-2-yl]carbonyl}octahydropyrrolo[3,4-c]pyrrole], the negative-log Ki (pKi) was 5.05.

`Cc1ccc(-c2ncc(C)o2)c(C(=O)N2CC3CN(c4cc(N(C)C)nc(C)n4)CC3C2)n1` (stereo not drawn) [Example 429, N,N,2-Trimethyl-6-[5-{[6-methyl-3-(5-methyl-1,3-oxazol-2-yl)pyridin-2-yl]carbonyl}hexahydropyrrolo[3,4-c]pyrrol-2(1H)-yl]pyrimidin-4-amine]: the negative-log Ki (pKi) was 6.12.

In the case of `Cc1cccc(C(=O)N2CC3CN(c4cnc5cc(F)c(F)cc5n4)CC3C2)c1-n1nccn1` (stereo not drawn) [Example 460, 6,7-Difluoro-2-[5-{[3-methyl-2-(2H-1,2,3-triazol-2-yl)phenyl]carbonyl}hexahydropyrrolo[3,4-c]pyrrol-2(1H)-yl]quinoxaline], the negative-log Ki (pKi) is 6.96.

Turning to `CCOc1ncccc1C(=O)N1CC2CN(c3nc(C)cc(C)n3)CC2C1` (stereo not drawn) [Example 415, 2-(4,6-Dimethylpyrimidin-2-yl)-5-[(2-ethoxypyridin-3-yl)carbonyl]octahydropyrrolo[3,4-c]pyrrole], the negative logarithm of the Ki (pKi) was 6.48.

On to `Cc1cc(C)nc(N2CC3CN(C(=O)c4c(F)cccc4-c4ccnnc4)CC3C2)n1` (stereo not drawn) [Example 488, 2-(4,6-Dimethylpyrimidin-2-yl)-5-[(2-fluoro-6-pyridazin-4-ylphenyl)carbonyl]octahydropyrrolo[3,4-c]pyrrole], for which the pKi is 5.00.

With `Cc1cc(C)nc(N2CC3CN(C(=O)c4nc(C)ccc4-n4ccnn4)CC3C2)n1` (stereo not drawn) [Example 439, 2-(4,6-Dimethylpyrimidin-2-yl)-5-{[6-methyl-3-(1H-1,2,3-triazol-1-yl)pyridin-2-yl]carbonyl}octahydropyrrolo[3,4-c]pyrrole], the negative logarithm of the Ki (pKi) was 5.00.

On to `[2H]c1c(C([2H])([2H])[2H])nc(N2CC3CN(C(=O)c4cccc(F)c4-c4ncccn4)CC3C2)nc1C([2H])([2H])[2H]` (stereo not drawn) [Example 431, 2-{4,6-Bis[(^2H3)methyl](^2H)pyrimidin-2-yl}-5-[(3-fluoro-2-pyrimidin-2-ylphenyl)carbonyl]octahydropyrrolo[3,4-c]pyrrole], for which the pKi was 7.74.

In the case of `Cc1cc(C)nc(N2CC3CN(C(=O)c4c(F)cccc4-c4nnc[nH]4)CC3C2)n1` (stereo not drawn) [Example 437, 2-(4,6-Dimethylpyrimidin-2-yl)-5-{[2-fluoro-6-(1H-1,2,4-triazol-5-yl)phenyl]carbonyl}octahydropyrrolo[3,4-c]pyrrole], the negative-log Ki (pKi) is 6.57.

For `COc1ncc(-c2cccc(F)c2C(=O)N2CC3CN(c4nc(C)cc(C)n4)CC3C2)s1` (stereo not drawn) [Example 479, 2-(4,6-Dimethylpyrimidin-2-yl)-5-{[2-fluoro-6-(2-methoxy-1,3-thiazol-5-yl)phenyl]carbonyl}octahydropyrrolo[3,4-c]pyrrole], the pKi is 6.28.

With `Cc1nc(N2CC3CN(C(=O)c4cccc(F)c4-c4ncco4)CC3C2)ncc1F` (stereo not drawn) [Example 496, 2-(5-Fluoro-4-methylpyrimidin-2-yl)-5-{[3-fluoro-2-(1,3-oxazol-2-yl)phenyl]carbonyl}octahydropyrrolo[3,4-c]pyrrole], the pKi is 7.59.

For the compound `COc1ccc(C(=O)N2CC3CN(c4nc(C)cc(CO)n4)CC3C2)c(-n2nccn2)c1` (stereo not drawn) [Example 435, {2-[5-{[4-Methoxy-2-(2H-1,2,3-triazol-2-yl)phenyl]carbonyl}hexahydropyrrolo[3,4-c]pyrrol-2(1H)-yl]-6-methylpyrimidin-4-yl}methanol], the pKi was 7.62.
